# From patent US9078890B2, “Use of koumine and its homologues in preparation of medicament for treatment of autoimmune diseases of involved bones and joints” (priority 2011, dated 2015)
# Marks after values point to notes of the source that are not given here.
# Legend:
# [1] = tested on: adjuvant arthritis mice; test: Adjuvant arthritis mice: hyperalgesia (phlogogenic paw thermal withdrawal latency); type: in vivo, Kunming mice
# Description: BCG was inactivated in water bath at 80° C., and fully emulsified along with complete Freund's adjuvant to form complete Freund's adjuvant emulsion containing 5 mg/ml BCG, preserved at 4° C., and shake well before use. The Kunming mice were divided into a modeling group and a false modeling group. According to the method recited in the literature [Rasool M, Sabina E P, Lavanya B. Anti-inflammatory effect of Spirulina fusiformis on adjuvant-induced arthritis in mice. Biol Pharm Bull. 2006, 29(12):2483-7], for the modeling group, the model was prepared by intradermal injection of 20 ul the emulsion under the plantar surface of right paws after the mice was narcotized; for the false modeling group, the emulsion was replaced with physiological saline. For the modeling group, the animals were screened on Day 8 after injection: the mice with the injected paw thickness increased >0.5 mm and thermal hyperalgesia occurred (paw thermal withdrawal latency <8 second) were selected as experimental subjects. The selected mice were divided into 5 groups randomly: low, middle, high dose treatment group (0.8, 4, 20 mg/kg); indomethacin positive control group (10 mg/kg); negative control group (physiological saline), each comprising 12 animals. Day 8 after inflammation, intragastric administration was carried out on each group to give corresponding intervention, one time per day for 10 days continuously.
# 30 min after intragastric administration, the phlogogenic paw thermal withdrawal latency of the mice in each group was determined by photo-thermal dolorimeter to reflect animals' hyperalgesia status.
# [2] = tested on: type II collagen-induced arthritis rat; test: Type II collagen-induced arthritis rat: condition and body weight; type: in vivo, Wistar rat
# Description: (§1) Under aseptic conditions, 10 mg chicken type II collagen protein was fully mixed with 5 ml 10 mM glacial acetic acid solution, and stirred overnight in refrigerator at 4° C. to fully dissolve it. It was mixed with complete Freund's adjuvant in equal volume in ice bath to fully emulsify into an emulsion with a collagen concentration of 1 mg/ml.
# (§2) Wistar rats are divided into a modeling group and a false modeling group. After the modeling group rats were narcotized with intraperitoneal injection of pentobarbital, the above emulsion was injected intracutaneously at 3 to 4 positions at back, tail root or the like, 0.3 ml for each, an primary immunity was carried out. After 7 days, a secondary immunity was carried out, the emulsifying agent complete Freund's adjuvant of initial immunity was replaced with incomplete Freund's adjuvant, 0.1 ml the emulsion was injected under sevoflurane inhalation anesthesia wherein the injection position is different from the last time. In false modeling group, the emulsion was replaced with solvent glacial acetic acid solution.
# (§3) Successfully modeled rat in the modeling group were randomly divide into 5 groups: low, middle, high-dose koumine treatment group, positive control group, negative control group, 10 rats for each group. Beginning from Day 21 after modeling, corresponding intervention was carried out as following in 10 days continuously: 0.6, 3, 15 mg/kg koumine were intragastrically administrated to the low, middle, high-dose koumine treatment group respectively, 1 time every day; 1 mg/kg amethopterin was administrated to the positive control group, 1 time every 3 days, equal volume of physiological saline was administrated for the remained days; equal volume of physiological saline was administrated to the negative control group.
# [3] = tested on: type II collagen-induced arthritis rat; test: Type II collagen-induced arthritis rat: thermal hyperalgesia (thermal withdrawal latency); type: in vivo, Wistar rat; settings: amethopterin 1 mg/kg once every 3 days
# Description: as §1, §2, §3
# 1 hour after intragastric administration, the thermal withdrawal latency of each group was determined by the photo-thermal dolorimeter; the mechanical pain threshold of rats of each group was determined by Von-frey electromechanical pain threshold detector, thus the condition of thermal hyperalgesia and mechanical hyperalgesia of rats of each group was observed.
Structure (SMILES),"Thermal stimulus withdrawal latency, Before intervention ([1]; indomethacin 10 mg/kg intragastric once daily for 10 days from Day 8 after inflammation, before intervention) [s]","Thermal stimulus withdrawal latency, Intervention Day 4 ([1]; indomethacin 10 mg/kg intragastric once daily from Day 8, Day 4)","Thermal stimulus withdrawal latency, Intervention Day 8 ([1]; indomethacin 10 mg/kg intragastric once daily from Day 8, Day 8)","Thermal stimulus withdrawal latency, Intervention Day 12 ([1]; indomethacin 10 mg/kg intragastric once daily from Day 8, Day 12)","Thermal stimulus withdrawal latency, Intervention Day 16 ([1]; indomethacin 10 mg/kg intragastric once daily from Day 8, Day 16)","Thermal stimulus withdrawal latency, Intervention Day 18 ([1]; indomethacin 10 mg/kg intragastric once daily from Day 8, Day 18)","Body weight after intervention, Day 7 ([2]; amethopterin 1 mg/kg once every 3 days from Day 21, Day 7) [g]","Body weight after intervention, Day 14 ([2]; amethopterin 1 mg/kg once every 3 days from Day 21, Day 14) [g]","Body weight after intervention, Day 21 ([2]; amethopterin 1 mg/kg once every 3 days from Day 21, Day 21) [g]","Body weight after intervention, Day 31 ([2]; amethopterin 1 mg/kg once every 3 days from Day 21, Day 31) [g]","Body weight before intervention ([2]; amethopterin 1 mg/kg once every 3 days, from Day 21 after modeling for 10 days, before intervention) [g]","Thermal stimulus withdrawal latency, Before intervention ([3]; before intervention) [s]","Thermal stimulus withdrawal latency, Intervention Day 2 ([3]; intervention Day 2) [s]","Thermal stimulus withdrawal latency, Intervention Day 4 ([3]; intervention Day 4)","Thermal stimulus withdrawal latency, Intervention Day 6 ([3]; intervention Day 6)","Thermal stimulus withdrawal latency, Intervention Day 8 ([3]; intervention Day 8)","Thermal stimulus withdrawal latency, Intervention Day 10 ([3]; intervention Day 10)"
"COc1ccc2c(c1)c(CC(=O)O)c(C)n2C(=O)c1ccc(Cl)cc1 [Positive control, Indomethacin, reference compound]",13.8 ± 1.2,5.9 ± 1.1^★★ second,4.1 ± 0.8^★★ second,8.9 ± 0.9**^★ second,9.8 ± 1.6**^★ second,10.1 ± 1.2**^★★ second,–,–,–,–,–,–,–,–,–,–,–
"CN(Cc1cnc2nc(N)nc(N)c2n1)c1ccc(C(=O)N[C@@H](CCC(=O)O)C(=O)O)cc1 [Positive control group, Amethopterin, reference compound]",–,–,–,–,–,–,154.5 ± 8.36,178.2 ± 5.93,203.1 ± 9.11,227.0 ± 12.68,129.8 ± 6.21,8.05 ± 1.01,8.48 ± 0.73,9.15 ± 0.57**^★★ second,9.27 ± 1.09**^★ second,9.50 ± 1.08**^★★ second,10.31 ± 1.21**^★ second
